Data as given in patent US20140088298A9, “CONJUGATES COMPRISING HYDROXYALKYL STARCH AND A CYTOTOXIC AGENT AND PROCESS FOR THEIR PREPARATION” (Fresenius Kabi Deutschland GmbH, priority 2010, published 2014).

Tests used:
Type in all cases: in vivo, NMRI:nu/nu mice
[1] = Body weight change as sign for toxicity, mouse tumor model MT-3; settings: for Toxic deaths (at day): n=8
Experimental: (§1) Tumor growth inhibition was used as therapeutic parameter. Additionally, body weight change was determined as signs for toxicity (particularly, potential hematological or gastrointestinal side effects).
(§2) Individual body weights of mice were determined twice weekly and mean body weight per group was related to the initial value in percent (body weight change, BWC), see tables in appendix.
(§3) Descriptive statistics was performed on the data of body weight and tumor volume. […] Statistical evaluation was performed with the U-test of Mann and Whitney with a significance level of p<0.05, using the Windows program […] 6.
(§4) Tables 18 to 24 summarize the results for the tested Docetaxel conjugates and the reference compound Taxotere®. […] The loss of body weight is known to be an indicator of gastro-intestinal and hepatotoxicity of the tested compound.

[2] = Body weight change as sign for toxicity, mouse tumor model A549; settings: Table 21, A549; maximum body weight loss; conjugates 1 x 75 mg/kg day 8; Docetaxel 5 mg/kg days 8-12
Experimental: as §1, §2, §3, §4

[3] = Body weight change as sign for toxicity, mouse tumor model PC3; settings: Table 20, PC3; maximum body weight loss; conjugates 1 x 75 mg/kg day 6; Docetaxel 5 mg/kg days 6-10
Experimental: as §1
Descriptive statistics was performed on the data of body weight and tumor volume. […] 6.

| SMILES | Toxic deaths (at day) ([1]; Table 25, MT-3, conjugates 1 x 100 mg/kg day 7, Paclitaxel 12.5 mg/kg days 7-9, 10 mg/kg days 10-11) | Toxic deaths (at day) ([1]; Table 26, MT-3, conjugates 1 x 80 mg/kg day 10, Paclitaxel 10 mg/kg days 10-14) | BWC [%] (at day) [2] | BWC [%] (at day) [3] | Toxic deaths (at day) ([1]; Table 18, MT-3, conjugates 1 x 100 mg/kg i.v. day 7, Docetaxel 10 mg/kg days 7, 9, 11) | Toxic death (at day) ([1]; Table 23, MT-3, conjugates 1 x 75 mg/kg day 7, Docetaxel 5 mg/kg days 7-11) |
| --- | --- | --- | --- | --- | --- | --- |
| CC(=O)O[C@H]1C(=O)[C@@]2(C)[C@H]([C@H](OC(=O)c3ccccc3)[C@]3(O)C[C@H](OC(=O)[C@H](O)[C@@H](NC(=O)c4ccccc4)c4ccccc4)C(C)=C1C3(C)C)[C@]1(OC(C)=O)CO[C@@H]1C[C@@H]2O [Paclitaxel] | 1 | 0 |  |  |  |  |
| CC(=O)O[C@@]12CO[C@@H]1C[C@H](O)[C@@]1(C)C(=O)[C@H](O)C3=C(C)[C@@H](OC(=O)[C@H](O)[C@@H](NC(=O)OC(C)(C)C)c4ccccc4)C[C@@](O)([C@@H](OC(=O)c4ccccc4)[C@H]21)C3(C)C [Taxotere, Docetaxel] |  |  | −5 | −14 | 4 | 0 |
